For data set [1], the system named is Aspergillus. As to the kind of experiment: broth dilution MIC, Aspergillus. Format: cell-based, Aspergillus (flavus, fumigatus and other species). The settings on record: for percentage of strains with MICs ≤1 mcg/ml / MIC90: Aspergillus, 37 strains; for percentage of strains with MICs ≤1 mcg/ml: Table Q; for MIC90: Table S. (Broth dilution looks for growth in wells or tubes with falling amounts of substance.)

Data set [2] concerns Candida albicans. As to the kind of experiment: broth dilution MIC, Candida albicans. The format is cell-based. Conditions: 26 strains; for percentage of strains with MICs ≤1 mcg/ml: Table Q; for MIC90: Table S.
Procedure: (§1) The in vitro antifungal activity tests were performed via conventional broth dilution methods in Sabouraud dextrose broth ("SDB") medium and Eagles Minimum Essential Medium ("EMEM") against a large number of fungi. Minimum Inhibitory Concentrations ("MICs") were measured after 24, 48 and 72 hour tests. In many cases, Minimum Fungicidial Concentrations ("MFCS") were measured after 48 and 72 hours.
Data set [3] relates to Candida krusei. As to the kind of experiment: broth dilution MIC, Candida krusei. The format is cell-based. The settings on record: 16 strains; for percentage of strains with MICs ≤1 mcg/ml: Table Q; for MIC90: Pichia kudriavzevii, Table S.
Data set [4] deals with Candida tropicalis & stellatoidea. As to the kind of experiment: broth dilution MIC, Candida tropicalis & stellatoidea. The format is cell-based. Conditions: 5 strains; for percentage of strains with MICs ≤1 mcg/ml: Table Q; for MIC90: Table S.
Procedure: as §1
Data set [5] relates to Candida glabrata. As to the kind of experiment: broth dilution MIC, Candida glabrata. The settings on record: 9 strains; for percentage of strains with MICs ≤1 mcg/ml: Table Q. The format is cell-based.
Procedure: as §1
Data set [6] relates to Cryptococcus neoformans. As to the kind of experiment: broth dilution MIC, Cryptococcus neoformans. Format: cell-based. The settings on record: 3 strains; for percentage of strains with MICs ≤1 mcg/ml: Table Q; for MIC90: Table S.
Procedure: as §1
Data set [7] concerns Dermatophytes. As to the kind of experiment: broth dilution MIC, Dermatophytes. The settings on record: 6 strains; for percentage of strains with MICs ≤1 mcg/ml: Table Q; for MIC90: Table S. Format: cell-based, T. rubrum, T. mentagrophytes, and T. tonsurans.
In data set [8] the test system is Aspergillus. Briefly: broth dilution MFC, Aspergillus. The format is cell-based, Aspergillus (flavus, fumigatus and other species). The settings on record: for percentage of strains with MFCs ≤1 mcg/ml: Aspergillus, 37 strains, Table R.
The subject of data set [9] is Candida krusei. As to the kind of experiment: broth dilution MFC, Candida krusei. The format is cell-based. Conditions: 16 strains, Table R.
Procedure: as §1
For data set [10], the system named is Candida glabrata. As to the kind of experiment: broth dilution MFC, Candida glabrata. The settings on record: 9 strains, Table R. The format is cell-based.
Procedure: as §1
In data set [11] the test system is Cryptococcus neoformans. Briefly: broth dilution MFC, Cryptococcus neoformans. The format is cell-based. Conditions: 3 strains, Table R.
Procedure: as §1
Data set [12] concerns Dermatophytes. Briefly: broth dilution MFC, Dermatophytes. Format: cell-based, T. rubrum, T. mentagrophytes, and T. tonsurans. Conditions: 6 strains, Table R.
Procedure: as §1
The test system of data set [13] is Candida albicans. As to the kind of experiment: broth dilution MFC, Candida albicans. Conditions: 26 strains, Table R.
Procedure: as §1
The test system of data set [14] is Candida tropicalis & stellatoidea. Briefly: broth dilution MFC, Candida tropicalis & stellatoidea. The settings on record: 5 strains, Table R.
Procedure: as §1
Data set [15] can be described thus: serum levels following oral dosing, mice. Format: in vivo. The settings on record: methyl cellulose formulation.
The nature of data set [16]: serum levels following oral dosing, rats. Format: in vivo. Conditions: methyl cellulose formulation.
A short description of data set [17]: serum levels following oral dosing, dogs. The format is in vivo. Conditions: methyl cellulose formulation.
Data set [18] in a line: serum levels following oral dosing, monkeys. Format: in vivo. Conditions: methyl cellulose formulation.
Data set [19] has as its system cytochrome P-450 liver drug metabolizing enzymes. Briefly: induction of cytochrome P-450 after oral administration in an in vivo rat model.
For data set [20] the following is noted: Janssen U.S. Pat. No. 4,791,111; cited from earlier work.

Molecules are shown by their SMILES. ≈ marks a conversion by molar mass, not a printed value.

The values below come from US5693626A, “Tetrahydrofuran antifungals” (Schering Corporation, priority 1995, dated 1997).

`CC[C@@H]([C@@H](C)O)n1ncn(-c2ccc(N3CCN(c4ccc(OC[C@@H]5CO[C@@](Cn6cncn6)(c6ccc(F)cc6F)C5)cc4)CC3)cc2)c1=O`: the “percentage of strains with MICs ≤1 mcg/ml” value in the data set on Aspergillus [1] is on record as 100 percentage of strains; in the data set with Candida albicans [2], 100 percentage of strains; with Candida krusei [3], 100 percentage of strains; in data set [4], 100 percentage of strains; in the data set on Candida glabrata [5], 33 percentage of strains; in the data set on Cryptococcus neoformans [6], 100 percentage of strains. Also, the “percentage of strains with MICs ≤1 mcg/ml” value in the data set on Dermatophytes [7] is on record as 100 percentage of strains. The MIC90 stood at 0.112 µg/mL (≈ 0.16 µM) in the data set with Aspergillus [1]; 0.139 µg/mL (≈ 0.198 µM) with Candida albicans [2]; 0.12 µg/mL (≈ 0.171 µM) against Candida krusei [3]; 0.354 µg/mL (≈ 0.505 µM) in [4]; 0.101 µg/mL (≈ 0.144 µM) in the data set with Cryptococcus neoformans [6]; 0.707 µg/mL (≈ 1.01 µM) in the data set with Dermatophytes [7]. The “percentage of strains with MFCs ≤1 mcg/ml” value in the data set on Aspergillus [8] was 89 percentage of strains; with Candida krusei [9] it was 100 percentage of strains; in the data set on Candida glabrata [10], 22 percentage of strains; with Cryptococcus neoformans [11], 100 percentage of strains; with Dermatophytes [12], 100 percentage of strains; in the data set on Candida albicans [13] it was 100 percentage of strains. In addition, the “percentage of strains with MFCs ≤1 mcg/ml” value in data set [14] is 100 percentage of strains.

In the case of `CC[C@@H]([C@H](C)O)n1ncn(-c2ccc(N3CCN(c4ccc(OC[C@@H]5CO[C@@](Cn6cncn6)(c6ccc(F)cc6F)C5)cc4)CC3)cc2)c1=O` [drawing 21], the “serum levels compared to azoles of similar structure” value in data set [15], in data set [16], in data set [17] and in [18] was “consistently higher serum levels” in each case. The “induction of cytochrome P-450 liver drug metabolizing enzymes” value in data set [19] was “not inducers”.

As for `CC[C@H]([C@H](C)O)n1ncn(-c2ccc(N3CCN(c4ccc(OC[C@@H]5CO[C@@](Cn6cncn6)(c6ccc(F)cc6F)C5)cc4)CC3)cc2)c1=O`, the “percentage of strains with MICs ≤1 mcg/ml” value with Aspergillus [1] is reported as 100 percentage of strains; in the data set on Candida albicans [2] it was 100 percentage of strains; in the data set with Candida krusei [3], 100 percentage of strains; in data set [4], 100 percentage of strains; in the data set with Candida glabrata [5] it was 22 percentage of strains; in the data set on Cryptococcus neoformans [6], 100 percentage of strains. Moreover, the “percentage of strains with MICs ≤1 mcg/ml” value in the data set on Dermatophytes [7] was 100 percentage of strains. Besides, the MIC90 is 0.058 µg/mL (≈ 0.0828 µM) against Candida krusei [3], 0.117 µg/mL (≈ 0.167 µM) in data set [4], 0.05 µg/mL (≈ 0.0713 µM) in the data set with Cryptococcus neoformans [6] and 0.165 µg/mL (≈ 0.235 µM) in the data set with Dermatophytes [7]. The “percentage of strains with MFCs ≤1 mcg/ml” value was 50 percentage of strains in the data set with Aspergillus [8]; 88 percentage of strains in the data set on Candida krusei [9]; 22 percentage of strains with Candida glabrata [10]; 100 percentage of strains with Cryptococcus neoformans [11]; 67 percentage of strains with Dermatophytes [12]; 100 percentage of strains in the data set with Candida albicans [13]. Also, in data set [14], the “percentage of strains with MFCs ≤1 mcg/ml” value is listed as 100 percentage of strains.

Turning to `CC[C@@H]([C@H](C)O)n1ncn(-c2ccc(N3CCN(c4ccc(OC[C@@H]5CO[C@@](Cn6cncn6)(c6ccc(F)cc6F)C5)cc4)CC3)cc2)c1=O` [drawing 23], the “percentage of strains with MICs ≤1 mcg/ml” value in the data set with Aspergillus [1] is on record as 100 percentage of strains; in the data set with Candida albicans [2] it was 100 percentage of strains; in the data set with Candida krusei [3], 100 percentage of strains; in data set [4], 100 percentage of strains; in the data set on Candida glabrata [5], 22 percentage of strains; with Cryptococcus neoformans [6], 100 percentage of strains. In the data set on Dermatophytes [7], the “percentage of strains with MICs ≤1 mcg/ml” value is on record as 100 percentage of strains. Also, the MIC90 in the data set on Aspergillus [1] is 0.096 µg/mL (≈ 0.137 µM); against Candida albicans [2], 0.174 µg/mL (≈ 0.248 µM); against Candida krusei [3], 0.014 µg/mL (≈ 0.02 µM); in [4] it was 0.117 µg/mL (≈ 0.167 µM); in the data set on Candida glabrata [5] (Nakaseomyces glabratus, Table S), 17.1 µg/mL (≈ 24.4 µM); in the data set with Cryptococcus neoformans [6], 0.007 µg/mL (≈ 0.00999 µM). In the data set with Dermatophytes [7], the MIC90 came to 0.101 µg/mL (≈ 0.144 µM). In addition, the “percentage of strains with MFCs ≤1 mcg/ml” value in the data set with Aspergillus [8] is given as 62 percentage of strains; in the data set with Candida krusei [9] it was 94 percentage of strains; in the data set with Candida glabrata [10] it was 22 percentage of strains; in the data set with Cryptococcus neoformans [11], 100 percentage of strains; with Dermatophytes [12], 83 percentage of strains; in the data set with Candida albicans [13], 100 percentage of strains. The “percentage of strains with MFCs ≤1 mcg/ml” value in data set [14] was 100 percentage of strains.

With `CC(O)C(C)n1ncn(-c2ccc(N3CCN(c4ccc(OCC5COC(Cn6cncn6)(c6ccc(Cl)cc6Cl)O5)cc4)CC3)cc2)c1=O` (single isomer, unassigned; (+)) [(+)cis-4-[4-[4-[4-[[2-2,4-dichlorophenyl)-2-(1H-1,2,4-triazol-1-ylmethyl)-1,3-dioxolan-4-yl]methoxy]phenyl]-1-piperazinyl]-2,4dihydro-2-(2-hydroxy-1-methylpropyl)-3H-1,2,4-triazol-3-one], the solubility entry in data set [20] is on record as “increased solubility”.

With `OC(Cn1cncn1)(Cn1cncn1)c1ccc(F)cc1F` [fluconazole, reference compound], the “percentage of strains with MICs ≤1 mcg/ml” value in the data set on Aspergillus [1] was 0 percentage of strains; with Candida albicans [2], 100 percentage of strains; in the data set on Candida krusei [3], 0 percentage of strains; in [4], 100 percentage of strains; in the data set on Candida glabrata [5], 0 percentage of strains; in the data set with Cryptococcus neoformans [6], 0 percentage of strains. Also, the “percentage of strains with MICs ≤1 mcg/ml” value in the data set with Dermatophytes [7] is given as 100 percentage of strains. Also, the MIC in the data set with Aspergillus [1] (SDB, 37 species of Aspergillus, bounds printed with ≤, b40, read-out: geometric mean MIC) is at most 32 µg/mL. Moreover, the “percentage of strains with MFCs ≤1 mcg/ml” value in the data set with Aspergillus [8] is 0 percentage of strains; in the data set on Candida krusei [9] it was 0 percentage of strains; in the data set on Candida glabrata [10] it was 0 percentage of strains; in the data set on Cryptococcus neoformans [11] it was 0 percentage of strains; in the data set on Dermatophytes [12] it was 0 percentage of strains; in the data set with Candida albicans [13], 100 percentage of strains. In addition, in data set [14], the “percentage of strains with MFCs ≤1 mcg/ml” value was 100 percentage of strains. The MFC with Aspergillus [8] (SDB, 37 species of Aspergillus, bounds printed with ≤, b40, read-out: geometric mean MFC) is at most 32 µg/mL.

Usually MIC90 stands for an inhibitory concentration at the 90% level, which refers to growth in some studies and to a panel of isolates in others. Read a high MIC90 as weaker potency. A word on the MIC: it is the least concentration at which growth counts as inhibited. Broadly, the MFC is the lowest tested concentration that kills the fungus rather than only halting it.
